Measured values reported in patent US8168391B2, “Method for modulating insulin production” (Burnham Institute for Medical Research, priority 2007, dated 2012).
Where a name gives a salt, the structure may show the parent alone.

Experiments:
insulin promoter [1] = experiment: Insulin promoter/reporter screen in the presence of a fatty acid (reversal of palmitate-induced lipotoxicity); type: cell-based, human; details: screen in presence of fatty acid (FIG. 20) vs not in presence (FIG. 19)
Excerpt: The assays employ a cell line derived from human fetal islet cells (T6PNE) in which the cells are infected with a promoter/reporter construct. The construct is shown in FIG. 7 and incorporates an insulin promoter operably linked to an eGFP. Cells were infected and plated, and candidate libraries screened and “hit” detected as discussed in Example 1.
To differentiate between agents that specifically act to reverse lipotoxicity as compared to generally increasing transcription of insulin a two layer screening approach was utilized. In the first layer, islet cells infected with an insulin promoter/reporter construct are screened in the absence of a fatty acid. A “hit” indicates an agent that is capable of increasing insulin transcription. In the second layer, islet cells infected with an insulin promoter/reporter construct are screened in the presence of a fatty acid. A “hit” indicates a drug that reverses the effects of the fatty acid addition, for example reduction of insulin transcription. This drugs screened in both layers may be used to identify whether the drug is specific to lipotoxicity reversal. For example, drugs that are “hits” in the second layer screen but not in the first layer screen are specific to lipotoxicity reversal.

insulin promoter [2] = experiment: HTS insulin promoter/eGFP reporter screen in T6PNE cells (absence of fatty acid); type: cell-based, human; details: for activator of insulin promoter confirmed in confirmatory screen: repeat of initial screen with dose response, T6PNE cells, insulin promoter-eGFP
Protocol: A library of 1000 candidate drug compounds was initially screened using NEPCs cultured in a 384-well HTS format using the following method. NEPCs were infected with promoter/reporter constructs in suspension for 6 hours. The cells were then directly plated on Collagen I coated 384-well microtiter plates in media containing 10% plasma. Monolayer formation was allowed to progress by culture for 4 days with regular media changes. Library compounds were then contacted with the cells and added at a final concentration of 5 μM and incubated for 48 hours. Image analysis was then performed using fluorescent microscopy using DAPI […] and imaging of GFP to determine promoter activation activity of individual compounds. Image analysis algorithms are further refined to eliminate auto-fluorescent debris to accurately quantify green fluorescence. The assays employ a cell line derived from human fetal islet cells ([…]) in which the cells are infected with a promoter/reporter construct. The construct is shown in FIG. 7 and incorporates an insulin promoter operably linked to an eGFP. Cells were infected and plated, and candidate libraries screened and “hit” detected as discussed in Example 1. To differentiate between agents that specifically act to reverse lipotoxicity as compared to generally increasing transcription of insulin a two layer screening approach was utilized. In the first layer, islet cells infected with an insulin promoter/reporter construct are screened in the absence of a fatty acid. A “hit” indicates an agent that is capable of increasing insulin transcription. In the second layer, islet cells infected with an insulin promoter/reporter construct are screened in the presence of a fatty acid. A “hit” indicates a drug that reverses the effects of the fatty acid addition, for example reduction of insulin transcription. This drugs screened in both layers may be used to identify whether the drug is specific to lipotoxicity reversal. For example, drugs that are “hits” in the second layer screen but not in the first layer screen are specific to lipotoxicity reversal. […]

SMILES | reversal of palmitate-induced lipotoxicity (insulin promoter [1]) | other results
CC(=O)Oc1c(C)c(C)c2c(c1C)CCC(C)(CCC[C@H](C)CCC[C@H](C)CCCC(C)C)O2 (stereo partly drawn) [alpha-tocopheryl acetate] | expected to reverse lipotoxicity | 
CC(Cc1cccc(C(F)(F)F)c1)NCCOC(=O)c1ccccc1 (stereo not drawn) [benfluorex hydrochloride] | expected to reverse lipotoxicity | 
CC1=C(/C=C/C(C)=C/C=C/C(C)=C/C=C/C=C(C)/C=C/C=C(C)/C=C/C2=C(C)CCCC2(C)C)C(C)(C)CCC1 [beta-carotene] | expected to reverse lipotoxicity | 
CN(C)CCCN1c2ccccc2Sc2ccc(Cl)cc21 [chlorpromazine] |  | activator of insulin promoter confirmed in confirmatory screen (insulin promoter [2]): confirmed
Clc1ccc(C(OCCN2CCCCC2)c2ccccc2)cc1 (stereo not drawn) [cloperastine hydrochloride] | expected to reverse lipotoxicity | 
NCCc1ccc(O)c(O)c1 [dopamine] |  | upregulation of the insulin promoter (insulin promoter [2]; ChemBridge DiverSet library screen as in Example 2): upregulated the insulin promoter
CCN(CC)C(C)CN1c2ccccc2Sc2ccccc21 (stereo not drawn) [ethopropazine] |  | activator of insulin promoter confirmed in confirmatory screen (insulin promoter [2]): confirmed
CC[C@H](C)C(=O)O[C@H]1C[C@@H](C)C=C2C=C[C@H](C)[C@H](CC[C@@H]3C[C@@H](O)CC(=O)O3)[C@H]21 [lovastatin] | expected to reverse lipotoxicity | 
Cc1cccc(Nc2ccccc2C(=O)O)c1C [mefenamic acid] | expected to reverse lipotoxicity | 
